Laboratory results: US20240279171A1, “METHODS FOR PREPARING CRYSTALLINE FORMS OF AMISULPRIDE” (SUNOVION PHARMACEUTICALS INC., priority 2021, published 2024)
Like-named read-outs stand apart in the source and are kept apart here.

Assays:
[1] = Particle size distribution (Malvern Mastersizer), Example 16; assay type: physicochemical; settings: for D10 (μm) / D50 (μm) / D90 (μm): crystalline amisulpride used in the tablet formulations, Mastersizer 2000; for PSD D10 (μm) / PSD D50 (μm) / PSD D90 (μm): cooling method Y (Example 4) vs cooling method X (Example 14)
Text: The particle size distribution (PSD) of crystalline products prepared by the foregoing examples were examined. FIG. 10 presents a plot of the cooling profile comparison between the cooling profile X, using the recrystallization procedure of, e.g., Example 14, with cooling profile Y, using the recrystallization procedure of, e.g., Example 4 (Step 2). Recrystallization using the cooling methods of Example 14 (cooling method X) provided Form A′ having a smaller particle size distribution (e.g., D50 and D90 values) than Form A′ prepared by the methods of Example 4 (cooling method Y), as shown in the table below.
PSD data was obtained using a Malvern Instruments Mastersizer particle size analyzer instrument.
The PSD of the crystalline amisulpride used in the various formulations are provided below. Amisulpride corresponding to “small PSD” can be prepared using the recrystallization and cooling methods of, e.g., Examples 14 and 15 (i.e., cooling profile X of FIG. 10). Amisulpride corresponding to “large PSD” can be prepared using the recrystallization methods of Examples 1 and 3 (i.e., cooling profile Y of FIG. 10). The PSDs were measured using a Mastersizer 2000 particle size analyzer instrument as described above.

[2] = Particle size distribution by laser diffraction (Malvern Mastersizer 3000), Example 9; assay type: physicochemical; settings: pre-sieved through 30 mesh screen, 0.2% Span 85 in hexanes
Experimental: Prior to analysis, the Form A′ crystals of (S)-amisulpride and Form A crystals of (R)-amisulpride were separately pre-sieved through a 30 mesh screen. All material was passed through screen during this pre-sieving step including aggregates.
Particle size distribution (PSD) measurements were measured by laser diffraction using a Malvern Instruments Mastersizer 3000 particle size analyzer instrument operated with the instrumentation and parameters described in Table 7.
The samples were first sieved through a 30 mesh screen prior to suspension. Approximately 400 mg of the sieved sample was weighed into a 50 ml beaker and 40 ml of a 0.2% v/v Span 85 (Sorbitan trioleate) in hexanes dispersant solution (e.g., a dispersant solution prepared by dissolving 2 mL of Span 85 (Sorbitan trioleate) in 1 L of hexanes) added. The overhead stirrer impeller was placed slightly above the bottom of the beaker (about 1 to 1.5 cm) and stirred at 500 rpm. After 1 minute, a disposable graduated transfer pipette was used to remove about 3 mL of the sample suspension from the center position of the beaker between impeller shaft and beaker side, and midway between top of vortex and beaker bottom. The entire contents of the pipette were added to the Malvern sample cell without inverting the pipette and the pipette rinsed twice with the circulating dispersant from the sample cell. The obscuration should be between 7% and 15%, if the obscuration was less than 7%, another aliquot of sample was added, making sure to transfer the entire aliquot taken up in the transfer pipette to the instrument, in order to avoid, e.g., potential artifacts due to settling of the suspension within the pipette. If the obscuration was greater than 15%, the instrument was drained and rinsed, and the measurement performed using a smaller sample suspension aliquot. After a sample cell with acceptable obscuration was obtained, the sample was circulated in the Mastersizer Hydro MV circulation system for two minutes and the sample dispersion measured.

[3] = Dynamic vapor sorption (DVS) water sorption isotherm; assay type: physicochemical; settings: 25° C.; for hygroscopicity: DVS
Text: In various embodiments, the hygroscopicity of a compound is characterized by dynamic vapor sorption (DVS). DVS is a gravimetric technique that measures how much of a solvent is absorbed by a sample by varying the vapor concentration surrounding the sample (e.g., relative humidity) and measuring the change in mass. DVS was used herein to generate water sorption isotherms, which represent the equilibrium amount of water vapor adsorbed and/or absorbed as a function of steady state relative water vapor pressure at a constant temperature.
Dynamic vapor sorption (DVS) isotherms were generated using a VTI SGA-100 Symmetric Vapor Sorption Analyzer. Analysis included pre-analysis drying at 25° C. with equilibrium criteria of 0.0000 wt % change in 5 minutes or a maximum of 180 minutes. Equilibrium criteria were the lesser of 0.01 wt % change in 5 minutes or 180 minutes at each RH step. […] Analysis was repeated for each sample in consecutive analyses (i.e., the sample was not removed from analyzer between analyses).
Tables 9A and 9B presents the DVS water sorption for crystalline enantiomeric amisulpride of Form A and Form A′ shown in FIG. 7A.

[4] = Specific surface area (SSA), nitrogen gas, Quantachrome Quadrasorb SI; assay type: physicochemical; settings: degassed 2 hours at 40° C. under vacuum
Experimental: Specific surface area (SSA) was measured using a Quantachrome Quadrasorb SI surface area analyzer performed at six-points over the relative pressure range of 0.1000 to 0.3500 in 0.0500 increments. Approximately 1.3 to 4.6 grams of sample were used per analysis and were weighed into bulb tubes. Samples in bulb tubes were degassed 2 hours at 40° C. under vacuum using the Quantachrome FlowVac degasser prior to surface area analysis. Nitrogen gas was used as the gas for the surface area analyses.

[5] = DVS, 25° C., 0 to 95% relative humidity; '738 patent; cited from earlier work
[6] = listed as Form A′ (averages of lots prepared by the methods of Example 4)

CCN1CCC[C@@H]1CNC(=O)c1cc(S(=O)(=O)CC)c(N)cc1OC [Form A small PSD]
D10 (μm) [1]: 4.7 μm | D50 (μm) [1]: 18.2 μm | D90 (μm) [1]: 90.4 μm

CCN1CCC[C@H]1CNC(=O)c1cc(S(=O)(=O)CC)c(N)cc1OC [Form A′ small PSD]
D10 (μm) [1]: 5.1 μm | D50 (μm) [1]: 18.3 μm | D90 (μm) [1]: 80.1 μm

CCN1CCC[C@H]1CNC(=O)c1cc(S(=O)(=O)CC)c(N)cc1OC [Form A′ large PSD]
D10 (μm) [1]: 31.6 μm | D50 (μm) [1]: 93.1 μm | D90 (μm) [1]: 425.4 μm

CCN1CCC[C@H]1CNC(=O)c1cc(S(=O)(=O)CC)c(N)cc1OC [Form A′ prepared by Example 14, (S)-4-Amino-N-[(1-ethyl-2-pyrrolidinyl)methyl]-5-(ethylsulfonyl)-2-methoxybenzamide]
PSD D10 (μm) [1]: 7.0 μm | PSD D50 (μm) [1]: 25.5 μm | PSD D90 (μm) [1]: 83.9 μm

CCN1CCC[C@@H]1CNC(=O)c1cc(S(=O)(=O)CC)c(N)cc1OC [Form A large PSD]
D10 (μm) [1]: 12.8 μm | D50 (μm) [1]: 94.9 μm | D90 (μm) [1]: 441.4 μm

CCN1CCC[C@H]1CNC(=O)c1cc(S(=O)(=O)CC)c(N)cc1OC [(S)-amisulpride Form A′, (S)-4-Amino-N-[(1-ethyl-2-pyrrolidinyl)methyl]-5-(ethylsulfonyl)-2-methoxybenzamide]
Average PSD D10 (μm) [2]: 9.5 μm | Average PSD D50 (μm) [2]: 32.3 μm | Average PSD D90 (μm) [2]: 116.9 μm | PSD D10 (μm) [1, 6]: 6.0 μm | PSD D50 (μm) [1, 6]: 29.1 μm | PSD D90 (μm) [1, 6]: 99.4 μm | DVS Ads. at 95% RH [3]: 0.09 | Change Mass (wt %) ([3]; Relative Humidity 1.41 %, elapse time 180.73 min): 0.000 wt % | Change Mass (wt %) ([3]; Relative Humidity 5.38 %, elapse time 195.14 min): 0.003 wt % | Change Mass (wt %) ([3]; Relative Humidity 10.12 %, elapse time 207.64 min): 0.006 wt % | Change Mass (wt %) ([3]; Relative Humidity 15.00 %, elapse time 219.64 min): 0.011 wt % | Change Mass (wt %) ([3]; Relative Humidity 19.73 %, elapse time 227.64 min): 0.017 wt % | Change Mass (wt %) ([3]; Relative Humidity 24.91 %, elapse time 235.64 min): 0.023 wt % | Change Mass (wt %) ([3]; Relative Humidity 29.95 %, elapse time 243.64 min): 0.029 wt % | Change Mass (wt %) ([3]; Relative Humidity 34.98 %, elapse time 251.64 min): 0.033 wt % | Change Mass (wt %) ([3]; Relative Humidity 40.01 %, elapse time 260.64 min): 0.038 wt % | Change Mass (wt %) ([3]; Relative Humidity 44.94 %, elapse time 269.64 min): 0.042 wt % | Change Mass (wt %) ([3]; Relative Humidity 50.00 %, elapse time 278.64 min): 0.049 wt % | Change Mass (wt %) ([3]; Relative Humidity 55.02 %, elapse time 287.66 min): 0.053 wt % | Change Mass (wt %) ([3]; Relative Humidity 59.89 %, elapse time 296.66 min): 0.059 wt % | Change Mass (wt %) ([3]; Relative Humidity 64.92 %, elapse time 305.66 min): 0.066 wt % | Change Mass (wt %) ([3]; Relative Humidity 69.86 %, elapse time 314.66 min): 0.072 wt % | Change Mass (wt %) ([3]; Relative Humidity 74.97 %, elapse time 323.66 min): 0.076 wt % | Change Mass (wt %) ([3]; Relative Humidity 79.71 %, elapse time 332.66 min): 0.084 wt % | Change Mass (wt %) ([3]; Relative Humidity 84.74 %, elapse time 341.66 min): 0.094 wt % | Change Mass (wt %) ([3]; Relative Humidity 89.75 %, elapse time 350.66 min): 0.103 wt % | Change Mass (wt %) ([3]; Relative Humidity 94.55 %, elapse time 359.68 min): 0.114 wt % | hygroscopicity [3]: substantially non-hygroscopic | SSA (m^2/g) [4]: 0.65 m^2/g | hygroscopicity [5]: substantially non-hygroscopic

CCN1CCC[C@@H]1CNC(=O)c1cc(S(=O)(=O)CC)c(N)cc1OC [(R)-amisulpride Form A, (R)-4-Amino-N-[(1-ethyl-2-pyrrolidinyl)methyl]-5-(ethylsulfonyl)-2-methoxybenzamide]
Average PSD D10 (μm) [2]: 14.3 μm | Average PSD D50 (μm) [2]: 47.7 μm | Average PSD D90 (μm) [2]: 133.9 μm | DVS Ads. at 95% RH [3]: 0.14 | Change Mass (wt %) ([3]; Relative Humidity 1.39 %, elapse time 155.38 min): 0.000 wt % | Change Mass (wt %) ([3]; Relative Humidity 4.79 %, elapse time 327.39 min): −0.003 wt % | Change Mass (wt %) ([3]; Relative Humidity 10.00 %, elapse time 340.39 min): 0.003 wt % | Change Mass (wt %) ([3]; Relative Humidity 14.96 %, elapse time 359.89 min): 0.009 wt % | Change Mass (wt %) ([3]; Relative Humidity 19.81 %, elapse time 366.91 min): 0.015 wt % | Change Mass (wt %) ([3]; Relative Humidity 24.91 %, elapse time 374.93 min): 0.020 wt % | Change Mass (wt %) ([3]; Relative Humidity 30.02 %, elapse time 382.94 min): 0.026 wt % | Change Mass (wt %) ([3]; Relative Humidity 34.96 %, elapse time 390.96 min): 0.031 wt % | Change Mass (wt %) ([3]; Relative Humidity 39.94 %, elapse time 398.96 min): 0.038 wt % | Change Mass (wt %) ([3]; Relative Humidity 44.99 %, elapse time 406.96 min): 0.043 wt % | Change Mass (wt %) ([3]; Relative Humidity 49.99 %, elapse time 415.98 min): 0.049 wt % | Change Mass (wt %) ([3]; Relative Humidity 54.96 %, elapse time 424.99 min): 0.055 wt % | Change Mass (wt %) ([3]; Relative Humidity 59.96 %, elapse time 434.01 min): 0.061 wt % | Change Mass (wt %) ([3]; Relative Humidity 64.91 %, elapse time 443.03 min): 0.067 wt % | Change Mass (wt %) ([3]; Relative Humidity 69.86 %, elapse time 452.04 min): 0.073 wt % | Change Mass (wt %) ([3]; Relative Humidity 74.86 %, elapse time 461.04 min): 0.080 wt % | Change Mass (wt %) ([3]; Relative Humidity 79.80 %, elapse time 470.04 min): 0.087 wt % | Change Mass (wt %) ([3]; Relative Humidity 84.74 %, elapse time 479.04 min): 0.101 wt % | Change Mass (wt %) ([3]; Relative Humidity 89.58 %, elapse time 488.06 min): 0.113 wt % | Change Mass (wt %) ([3]; Relative Humidity 94.72 %, elapse time 497.06 min): 0.135 wt % | hygroscopicity [3]: substantially non-hygroscopic | SSA (m^2/g) [4]: 0.51 m^2/g | hygroscopicity [5]: substantially non-hygroscopic
